Source: patent US9434734B2, “Substituted pyrazoloquinazolinones and pyrroloquinazolinones as allosteric modulators of group II metabotropic glutamate receptors” (Domain Therapeutics, priority 2012, dated 2016)

Columns and labels:
[1] = biological target: T1, human mGluR2 (hmGluR2) transiently over-expressed in HEK-293 cells (Homo sapiens, UniProt Q14416); experiment: Human mGluR2 negative allosteric modulator evaluation using Ca++ functional assay (agonist and NAM activity); format: cell-based; details: hmGluR2 in HEK-293 cells, EC80 glutamate, Fluo4AM calcium readout; read-out: mGluR2 negative allosteric modulator activity IC50
T1 construct: expressed in transfected cells; host or cells: HEK-293 cells, transient co-transfection by electroporation
T1 sequence (Q14416 19-872): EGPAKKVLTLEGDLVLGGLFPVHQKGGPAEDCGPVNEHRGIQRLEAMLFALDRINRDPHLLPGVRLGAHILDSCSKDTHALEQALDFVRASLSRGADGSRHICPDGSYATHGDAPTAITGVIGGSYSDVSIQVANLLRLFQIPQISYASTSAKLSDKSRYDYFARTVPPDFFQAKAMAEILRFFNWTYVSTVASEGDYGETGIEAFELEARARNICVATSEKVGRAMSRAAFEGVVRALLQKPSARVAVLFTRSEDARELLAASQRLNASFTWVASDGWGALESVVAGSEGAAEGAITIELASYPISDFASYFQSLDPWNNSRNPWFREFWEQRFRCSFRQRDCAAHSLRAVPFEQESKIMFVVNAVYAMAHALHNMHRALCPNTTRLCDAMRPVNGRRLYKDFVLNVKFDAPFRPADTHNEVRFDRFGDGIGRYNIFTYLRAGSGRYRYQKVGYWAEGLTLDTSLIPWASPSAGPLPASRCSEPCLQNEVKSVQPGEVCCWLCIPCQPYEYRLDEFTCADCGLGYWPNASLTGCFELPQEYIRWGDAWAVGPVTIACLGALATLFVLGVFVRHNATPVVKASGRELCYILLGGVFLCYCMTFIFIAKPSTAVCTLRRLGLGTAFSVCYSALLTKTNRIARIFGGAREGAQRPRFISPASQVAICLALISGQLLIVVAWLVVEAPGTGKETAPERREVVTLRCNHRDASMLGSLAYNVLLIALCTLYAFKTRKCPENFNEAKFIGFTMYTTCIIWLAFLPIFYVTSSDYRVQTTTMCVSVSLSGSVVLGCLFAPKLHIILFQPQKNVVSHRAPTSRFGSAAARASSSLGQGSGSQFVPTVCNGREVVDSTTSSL
Method: Human mGluR2 Negative Allosteric Modulator Evaluation Using Ca^++ Functional Assay
Compounds of the present invention were tested successively for their agonist and negative allosteric modulator activities on human mGluR2 (hmGluR2) transiently over-expressed in HEK-293 cells. They exert agonist activity if they are able to activate mGluR2 by themselves, i.e., in absence of the endogenous agonist glutamate; and they exert negative allosteric modulator activity if they decrease the action of the endogenous agonist glutamate.
HEK-293 cells were maintained in Modified Eagle's Medium supplemented with 10% Foetal Calf Serum, 1% Penicillin/Streptomycin and 1% nonessential amino acids at 37° C./5% CO2.
Cells were plated after transfection onto polyornithine coated, clear bottom, black-walled, 96-well plates and cultured for 24 h.
Receptor activity was detected by changes in intracellular calcium measured using the fluorescent Ca^2+ sensitive dye, Fluo4AM (Molecular Probes).
The day of the assay, medium was aspirated and replaced during 3 hours by medium without serum supplemented with 1% Glutamax, 1% Penicillin/Streptomycin and 1% nonessential amino acids. Then, cells were washed with freshly prepared buffer B (HBSS 1× (PAA), Hepes 20 mM, MgSO4-7H2O 1 mM, Na2CO3 3.3 mM, CaCl2-2H2O 1.3 mM, 0.5% BSA, Probenecid 2.5 mM) and loaded at 37° C./5% CO2 for 1.5 hours with buffer B containing 1 μM Fluo4AM, 0.1 mg/mL Pluronic Acid, 7 μg/mL Glutamate Pyruvate Transaminase and 2 mM sodium pyruvate. Afterwards cells were washed twice with buffer B and 50 μL of this buffer were added to each well.
Agonist and negative allosteric modulator activities of compounds were consecutively evaluated on the same cells plate. […] Then, the cells were stimulated by an EC80 glutamate concentration and fluorescence was recorded for additional 60 s. EC80 glutamate concentration is the concentration giving 80% of the maximal glutamate response. Agonist and/or negative allosteric modulator activity(ies) were evaluated in comparison to basal signal or signal evoked by EC80 glutamate alone, respectively.
For potency determination, a dose-response test was performed using 8 concentrations of each compound of the invention. Dose-response curves were fitted using the sigmoidal dose-response (variable slope) analysis in GraphPad Prism program (Graph Pad Inc) and EC50 of agonist/IC50 of negative allosteric modulator activity was calculated. Dose-response experiments were all performed in duplicate, two times independently.

| IC50 [1] [µM] | melting point [°C] | SMILES |
| --- | --- | --- |
| < 1 | 115 to 119 | CN(C)S(=O)(=O)c1cccc(-c2ccc3c(=O)n(CC4CC4)c4cc(-c5ccccc5)nn4c3c2)c1 [Example 42, 3-(4-Cyclopropylmethyl-5-oxo-2-phenyl-4,5-dihydro-pyrazolo[1,5-a]quinazolin-8-yl)-N,N-dimethyl-benzenesulfonamide] |
| < 1 | 207 to 208 | CCn1c(=O)c2ccc(-c3ccc(N)nc3)cc2n2nc(-c3ccccc3)cc12.Cl [Example 43, 8-(6-Amino-pyridin-3-yl)-4-ethyl-2-phenyl-4H-pyrazolo[1,5-a]quinazolin-5-one] |
| < 1 | > 250 | CCCn1c(=O)c2ccc(-c3ccc(N)nc3)cc2n2nc(-c3ccccc3)cc12.Cl [Example 44, 8-(6-Amino-pyridin-3-yl)-2-phenyl-4-propyl-4H-pyrazolo[1,5-a]quinazolin-5-one] |
| < 1 | 227 to 230 | Cl.Nc1ccc(-c2ccc3c(=O)n(CC(F)(F)F)c4cc(-c5ccccc5)nn4c3c2)cn1 [Example 45, 8-(6-Amino-pyridin-3-yl)-2-phenyl-4-(2,2,2-trifluoro-ethyl)-4H-pyrazolo[1,5-a]quinazolin-5-one] |
| < 1 | > 250 | Cl.Nc1ccc(-c2ccc3c(=O)n(CC(F)F)c4cc(-c5ccccc5)nn4c3c2)cn1 [Example 46, 8-(6-Amino-pyridin-3-yl)-4-(2,2-difluoro-ethyl)-2-phenyl-4H-pyrazolo[1,5-a]quinazolin-5-one] |
| < 1 | 214 to 216 | CC(C)n1c(=O)c2ccc(-c3ccc(N)nc3)cc2n2nc(-c3ccccc3)cc12.Cl [Example 47, 8-(6-Amino-pyridin-3-yl)-4-isopropyl-2-phenyl-4H-pyrazolo[1,5-a]quinazolin-5-one] |
| < 1 | 203 to 205 | Cl.Nc1ccc(-c2ccc3c(=O)n(C4CCC4)c4cc(-c5ccccc5)nn4c3c2)cn1 [Example 48, 8-(6-Amino-pyridin-3-yl)-4-cyclobutyl-2-phenyl-4H-pyrazolo[1,5-a]quinazolin-5-one] |
| < 1 | > 250 | CCc1cc2n(C)c(=O)c3ccc(-c4ccc(N)nc4)cc3n2n1.Cl [Example 49, 8-(6-Amino-pyridin-3-yl)-2-ethyl-4-methyl-4H-pyrazolo[1,5-a]quinazolin-5-one] |
| < 1 | > 250 | CCCc1cc2n(C)c(=O)c3ccc(-c4ccc(N)nc4)cc3n2n1.Cl [Example 50, 8-(6-Amino-pyridin-3-yl)-4-methyl-2-propyl-4H-pyrazolo[1,5-a]quinazolin-5-one] |
| < 1 | 240 to 244 | CC(C)c1cc2n(C)c(=O)c3ccc(-c4ccc(N)nc4)cc3n2n1.Cl [Example 51, 8-(6-Amino-pyridin-3-yl)-2-isopropyl-4-methyl-4H-pyrazolo[1,5-a]quinazolin-5-one] |
| < 1 | 198 to 202 | COCCc1cc2n(C)c(=O)c3ccc(-c4ccc(N)nc4)cc3n2n1.Cl [Example 53, 8-(6-Amino-pyridin-3-yl)-2-(2-methoxy-ethyl)-4-methyl-4H-pyrazolo[1,5-a]quinazolin-5-one] |
| < 1 | > 250 | Cl.Cn1c(=O)c2ccc(-c3ccc(N)nc3)cc2n2nc(C3CC3)cc12 [Example 63, 8-(6-Amino-pyridin-3-yl)-2-cyclopropyl-4-methyl-4H-pyrazolo[1,5-a]quinazolin-5-one] |
| < 1 | > 250 | Cl.Cn1c(=O)c2ccc(-c3ccc(N)nc3)cc2n2nc(C3CCC3)cc12 [Example 64, 8-(6-Amino-pyridin-3-yl)-2-cyclobutyl-4-methyl-4H-pyrazolo[1,5-a]quinazolin-5-one] |
| < 1 | > 250 | Cl.Cn1c(=O)c2ccc(-c3ccc(N)nc3)cc2n2nc(C3CCCC3)cc12 [Example 65, 8-(6-Amino-pyridin-3-yl)-2-cyclopentyl-4-methyl-4H-pyrazolo[1,5-a]quinazolin-5-one] |
